Assay results reported in US12673924B2, “Valiolamine derivatives as glucosidase inhibitors” (Emergent Product Development Gaithersburg Inc., priority 2021, dated 2026).

Tests used:
Assay type in all cases: biochemical
[1] = molecular target: rat maltase; experiment: Intestinal alpha-glucosidase assay, maltose substrate; conditions: alpha-glucosidase from intestinal rat powder
Method: (§1) Intestinal alpha-glucosidases (rat maltase and sucrase): Intestinal alpha-glucosidases act upon 1,4-alpha-glucoside bonds, breaking down disaccharides to glucose. To perform this assay, partially purified alpha-glucosidase from intestinal rat powder was incubated for 60 minutes at 37° C. with multiple dilutions of test compounds. Maltose or Sucrose respectively was then introduced as substrate to the mixture and incubated for 30 minutes at 37° C. The reaction was stopped by a 5-minute incubation at 90° C. and the resultant glucose production is detected using Sigma's Glucose GO Kit. Percent inhibition was then plotted as a function of concentration for each test compound. The IC50 was determined using a 4-PL curve fit and serves as the measure of relative inhibition of each test compound (see Table 4). Table 4 summarizes the results of IC50s for each molecule against each tested glucosidase enzyme.

[2] = molecular target: T1, recombinant human GBA (Homo sapiens, UniProt P04062); experiment: Beta-glucocerebrosidase (GBA) inhibition assay; conditions: 4-methylumbelliferyl-beta-D-pyranoside substrate, 4-PL curve fit
T1 construct: purchased
T1 sequence (P04062 40-536): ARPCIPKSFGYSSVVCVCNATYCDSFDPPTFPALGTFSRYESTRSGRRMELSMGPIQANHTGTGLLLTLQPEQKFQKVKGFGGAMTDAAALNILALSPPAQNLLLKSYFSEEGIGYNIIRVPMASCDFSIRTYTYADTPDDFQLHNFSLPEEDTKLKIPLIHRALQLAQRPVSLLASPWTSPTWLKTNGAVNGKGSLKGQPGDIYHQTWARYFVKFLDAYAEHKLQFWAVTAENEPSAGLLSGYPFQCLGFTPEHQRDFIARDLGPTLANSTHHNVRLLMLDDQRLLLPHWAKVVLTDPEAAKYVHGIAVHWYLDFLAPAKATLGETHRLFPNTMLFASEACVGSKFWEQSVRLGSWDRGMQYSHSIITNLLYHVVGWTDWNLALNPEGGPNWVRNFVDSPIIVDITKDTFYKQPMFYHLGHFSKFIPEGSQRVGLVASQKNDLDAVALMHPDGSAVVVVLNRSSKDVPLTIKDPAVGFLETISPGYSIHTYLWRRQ
Method: Beta-glucocerebrosidase (GBA, also referred to glucosylceramidase): To analyze inhibitory effects of a test compound, commercially available recombinant human GBA was incubated with multiple dilutions of test compound for 60 minutes at 37° C. 4-methylumbelliferyl-beta-D-pyranoside was then introduced to the mixture as substrate. Following incubation for 60 minutes at 37° C., 1,4-methyllumbelliferone was generated, and the reaction was stopped with the stop solution (0.5 M glycine; 0.3 M NaOH, pH 10). 1,4-methyllumbelliferone was detected by fluorescence (excitation at 365 nm, emission at 440 nm). Relative fluorescence is compared to untreated enzymatic activity and test compound concentration is then plotted as a function of percent inhibition. The IC50 was determined using a 4-PL curve fit as the measure of relative inhibitory activity of each test compound (see Table 4).

[3] = molecular target: T2, rat sucrase (Rattus norvegicus, UniProt P23739); experiment: Intestinal alpha-glucosidase assay, sucrose substrate; conditions: alpha-glucosidase from intestinal rat powder
T2 construct: partially purified alpha-glucosidase from intestinal rat powder; from tissue; host or cells: rat intestinal powder
Method: as §1

T2 sequence (P23739 whole entry): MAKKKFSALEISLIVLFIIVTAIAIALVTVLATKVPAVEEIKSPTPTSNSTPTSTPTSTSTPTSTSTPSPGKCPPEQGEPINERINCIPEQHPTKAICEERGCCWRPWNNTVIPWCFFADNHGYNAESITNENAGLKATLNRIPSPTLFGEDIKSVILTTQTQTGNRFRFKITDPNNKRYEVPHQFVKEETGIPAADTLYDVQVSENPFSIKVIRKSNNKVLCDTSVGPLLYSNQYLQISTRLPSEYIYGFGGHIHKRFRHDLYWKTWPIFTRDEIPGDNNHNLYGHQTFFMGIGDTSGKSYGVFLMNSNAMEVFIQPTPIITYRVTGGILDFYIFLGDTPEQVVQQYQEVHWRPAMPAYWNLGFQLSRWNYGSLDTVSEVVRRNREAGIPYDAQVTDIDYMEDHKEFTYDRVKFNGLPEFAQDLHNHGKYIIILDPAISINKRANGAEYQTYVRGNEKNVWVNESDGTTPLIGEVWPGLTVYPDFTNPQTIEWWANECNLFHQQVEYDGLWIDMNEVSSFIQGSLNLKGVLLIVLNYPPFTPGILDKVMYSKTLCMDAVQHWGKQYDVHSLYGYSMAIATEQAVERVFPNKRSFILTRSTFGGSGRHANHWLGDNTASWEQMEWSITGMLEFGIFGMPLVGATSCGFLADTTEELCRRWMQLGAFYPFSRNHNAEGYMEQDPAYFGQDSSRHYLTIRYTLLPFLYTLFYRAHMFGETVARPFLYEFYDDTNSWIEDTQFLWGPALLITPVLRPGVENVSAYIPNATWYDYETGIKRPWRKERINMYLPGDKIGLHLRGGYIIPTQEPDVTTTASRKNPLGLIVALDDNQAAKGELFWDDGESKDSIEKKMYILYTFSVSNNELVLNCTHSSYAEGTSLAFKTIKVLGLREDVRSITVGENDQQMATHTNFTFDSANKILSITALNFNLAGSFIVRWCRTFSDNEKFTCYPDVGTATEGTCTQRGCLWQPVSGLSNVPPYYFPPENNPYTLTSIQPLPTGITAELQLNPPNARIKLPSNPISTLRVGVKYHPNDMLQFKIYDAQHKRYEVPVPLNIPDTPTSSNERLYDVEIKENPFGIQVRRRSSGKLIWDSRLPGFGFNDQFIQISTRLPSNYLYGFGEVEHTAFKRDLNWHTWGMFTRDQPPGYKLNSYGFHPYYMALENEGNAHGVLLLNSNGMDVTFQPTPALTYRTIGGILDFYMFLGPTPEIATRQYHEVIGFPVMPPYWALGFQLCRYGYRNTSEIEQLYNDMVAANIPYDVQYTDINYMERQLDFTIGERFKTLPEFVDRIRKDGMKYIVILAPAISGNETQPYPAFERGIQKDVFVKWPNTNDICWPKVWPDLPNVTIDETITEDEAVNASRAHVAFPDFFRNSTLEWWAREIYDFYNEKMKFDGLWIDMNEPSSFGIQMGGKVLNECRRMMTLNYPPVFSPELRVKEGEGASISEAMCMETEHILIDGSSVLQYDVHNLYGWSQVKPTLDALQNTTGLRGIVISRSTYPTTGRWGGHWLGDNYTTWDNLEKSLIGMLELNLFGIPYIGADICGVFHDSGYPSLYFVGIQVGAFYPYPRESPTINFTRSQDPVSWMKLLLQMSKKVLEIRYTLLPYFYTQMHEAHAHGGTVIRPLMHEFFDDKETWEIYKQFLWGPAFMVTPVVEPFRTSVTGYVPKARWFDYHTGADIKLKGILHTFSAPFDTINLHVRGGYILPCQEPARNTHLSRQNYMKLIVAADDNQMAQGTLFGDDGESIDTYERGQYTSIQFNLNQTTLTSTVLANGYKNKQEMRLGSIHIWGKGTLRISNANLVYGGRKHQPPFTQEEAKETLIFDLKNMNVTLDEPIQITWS

Compound | IC50 [1] | IC50 [2] | IC50 [3]
COCCCCCCCCCN[C@H]1C[C@](O)(CO)[C@@H](O)[C@H](O)[C@H]1O [Compound 3, (1S,2S,3R,4S,5S)-1-(hydroxymethyl)-5-((9-methoxynonyl)amino)cyclohexane-1,2,3,4-tetraol] | 0.102 µM | > 1000 µM | 0.116 µM
O=[N+]([O-])c1cc(-n2cnnn2)ccc1NCCCCCCN[C@H]1C[C@](O)(CO)[C@@H](O)[C@H](O)[C@H]1O [Compound 4, (1S,2S,3R,4S,5S)-1-(hydroxymethyl)-5-((6-((2-nitro-4-(1H-tetrazol-1-yl)phenyl)amino)hexyl)amino)cyclohexane-1,2,3,4-tetraol] | 0.512 µM | > 1000 µM | 2.93 µM
O=[N+]([O-])c1cc(-n2nccn2)ccc1NCCCCCCN[C@H]1C[C@](O)(CO)[C@@H](O)[C@H](O)[C@H]1O [Compound 5, (1S,2S,3R,4S,5S)-1-(hydroxymethyl)-5-((6-((2-nitro-4-(2H-1,2,3-triazol-2-yl)phenyl)amino)hexyl)amino)cyclohexane-1,2,3,4-tetraol] | < 0.0333 µM | 143 µM | 0.0342 µM
O=C(O)CCCCN[C@H]1C[C@](O)(CO)[C@@H](O)[C@H](O)[C@H]1O [Compound 11, 5-(((1S,2S,3R,4S,5S)-2,3,4,5-tetrahydroxy-5-(hydroxymethyl)cyclohexyl)amino)pentanoic acid] | 7.58 µM | > 1000 µM | 3.16 µM
N[C@H]1C[C@](O)(CO)[C@@H](O)[C@H](O)[C@H]1O [Valiolamine] | 1.3 µM | > 1000 µM | 0.334 µM

The remaining lines, values ahead:

IC50 [1] | IC50 [2] | IC50 [3] | Compound
0.00165 µM | 139 µM | < 0.0333 µM | [N-]=[N+]=Nc1ccc(NCCCCCCN[C@H]2C[C@](O)(CO)[C@@H](O)[C@H](O)[C@H]2O)c([N+](=O)[O-])c1 [Compound 2, (1S,2S,3R,4S,5S)-5-((6-((4-azido-2-nitrophenyl)amino)hexyl)amino)-1-(hydroxymethyl)cyclohexane-1,2,3,4-tetraol]
< 0.0333 µM | 776 µM | 0.0674 µM | O=[N+]([O-])c1cc(-n2ccnn2)ccc1NCCCCCCN[C@H]1C[C@](O)(CO)[C@@H](O)[C@H](O)[C@H]1O [Compound 6, (1S,2S,3R,4S,5S)-1-(hydroxymethyl)-5-((6-((2-nitro-4-(1H-1,2,3-triazol-1-yl)phenyl)amino)hexyl)amino)cyclohexane-1,2,3,4-tetraol]
0.00814 µM | > 1000 µM | – | O=[N+]([O-])c1cc(-c2ncccn2)ccc1NCCCCCCN[C@H]1C[C@](O)(CO)[C@@H](O)[C@H](O)[C@H]1O [Compound 7, (1S,2S,3R,4S,5S)-1-(hydroxymethyl)-5-((6-((2-nitro-4-(pyrimidin-2-yl)phenyl)amino)hexyl)amino)cyclohexane-1,2,3,4-tetraol]
0.0053 µM | > 1000 µM | – | [N-]=[N+]=Nc1ccc(NCCCCN[C@H]2C[C@](O)(CO)[C@@H](O)[C@H](O)[C@H]2O)c([N+](=O)[O-])c1 [Compound 8, (1S,2S,3R,4S,5S)-5-((4-((4-azido-2-nitrophenyl)amino)butyl)amino)-1-(hydroxymethyl)cyclohexane-1,2,3,4-tetraol]
0.00486 µM | 103 µM | 0.0112 µM | [N-]=[N+]=Nc1ccc(NCCCCCN[C@H]2C[C@](O)(CO)[C@@H](O)[C@H](O)[C@H]2O)c([N+](=O)[O-])c1 [Compound 9, (1S,2S,3R,4S,5S)-5-((5-((4-azido-2-nitrophenyl)amino)pentyl)amino)-1-(hydroxymethyl)cyclohexane-1,2,3,4-tetraol]
0.0261 µM | > 1000 µM | – | [N-]=[N+]=Nc1ccc(NCCOCCN[C@H]2C[C@](O)(CO)[C@@H](O)[C@H](O)[C@H]2O)c([N+](=O)[O-])c1 [Compound 10, (1S,2S,3R,4S,5S)-5-((2-(2-((4-azido-2-nitrophenyl)amino)ethoxy)ethyl)amino)-1-(hydroxymethyl)cyclohexane-1,2,3,4-tetraol]
